In ChEMBL document CHEMBL1139703, “Synthesis and structure-activity relationships of 3-phenyl-2-propenamides as inhibitors of glycogen phosphorylase a” (Bioorg Med Chem Lett, 2006):

Target: T1, Glycogen phosphorylase, liver form (Homo sapiens, UniProt P06737)
T1 sequence (P06737 whole entry): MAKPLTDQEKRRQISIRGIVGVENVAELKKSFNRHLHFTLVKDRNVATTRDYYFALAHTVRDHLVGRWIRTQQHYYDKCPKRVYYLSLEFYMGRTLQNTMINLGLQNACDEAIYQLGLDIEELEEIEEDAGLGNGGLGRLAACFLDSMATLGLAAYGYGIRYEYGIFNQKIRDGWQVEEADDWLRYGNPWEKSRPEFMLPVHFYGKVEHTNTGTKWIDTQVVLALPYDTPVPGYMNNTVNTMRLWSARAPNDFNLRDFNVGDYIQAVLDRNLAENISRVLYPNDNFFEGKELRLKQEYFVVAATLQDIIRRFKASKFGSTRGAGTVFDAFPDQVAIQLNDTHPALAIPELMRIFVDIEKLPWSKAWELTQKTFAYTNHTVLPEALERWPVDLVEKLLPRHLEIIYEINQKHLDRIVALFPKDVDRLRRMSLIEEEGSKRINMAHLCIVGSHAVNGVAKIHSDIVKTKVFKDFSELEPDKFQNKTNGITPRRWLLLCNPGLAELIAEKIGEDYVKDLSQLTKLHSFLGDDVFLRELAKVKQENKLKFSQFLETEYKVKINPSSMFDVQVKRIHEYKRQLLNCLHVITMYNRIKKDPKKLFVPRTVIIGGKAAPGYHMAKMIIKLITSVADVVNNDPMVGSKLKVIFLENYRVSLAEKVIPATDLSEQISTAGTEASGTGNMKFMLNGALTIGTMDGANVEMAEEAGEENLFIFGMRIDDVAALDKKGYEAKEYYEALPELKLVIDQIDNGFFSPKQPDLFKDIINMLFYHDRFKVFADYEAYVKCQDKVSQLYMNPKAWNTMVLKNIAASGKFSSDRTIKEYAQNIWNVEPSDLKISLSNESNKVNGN
Experiment: Inhibition of human liver GPa in absence of glucose
Details: not given
Compound O=C(/C=C/c1ccc(Cl)c(Cl)c1)NCCCCCN1CCN(C(=O)Nc2ccc(Cl)c(Cl)c2)CC1 has an IC50 greater than 20 µM.

System: not listed separately
Experiment: Permeability in artificial phospholipid bilayer membrane at pH 7.05
Format: ADME
Details: not told, read-out: permeability
O=C(/C=C/c1ccc(Cl)c(Cl)c1)NCCCCCN1CCC(C(=O)Nc2ccc(Cl)c(Cl)c2)CC1 showed a Papp of 9 ×10⁻⁶ cm/s.

Target: T1, Glycogen phosphorylase, liver form
Experiment: Inhibition of human liver GPa in presence of glucose
Details: not given
Compound COc1cccc(NC(=O)N2CCN(CCCCCNC(=O)/C=C/c3ccc(Cl)c(Cl)c3)CC2)c1 has an IC50 of 100 µM.
In the case of O=C(/C=C/c1ccc(Cl)c(Cl)c1)NCCCCCCN1CCCN(C(=O)Nc2ccc(Cl)c(Cl)c2)CC1, the IC50 is reported as 24 µM.
With O=C(/C=C/c1ccc(Cl)c(Cl)c1)NCCCCN1CCN(C(=O)Nc2ccc(Cl)c(Cl)c2)CC1 the IC50 was 0.71 µM.
Compound O=C(/C=C/c1ccc(Cl)c(Cl)c1)NCCN1CCN(C(=O)Nc2ccc(Cl)c(Cl)c2)CC1 has an IC50 of 90 µM.
With Cc1ccc(NC(=O)N2CCN(CCCCCNC(=O)/C=C/c3ccc(Cl)c(Cl)c3)CC2)cc1 the IC50 was 100 µM.
Compound O=C(/C=C/c1ccc(Cl)c(Cl)c1)NCCCCCCN1CCN(C(=O)Nc2ccc(Cl)c(Cl)c2)CC1 has an IC50 of 0.44 µM.
O=C(/C=C/c1ccc(Cl)c(Cl)c1)NCCCCCN1CCN(C(=O)Nc2ccc(Cl)c(C(F)(F)F)c2)CC1 gave an IC50 of 51 µM.
O=C(/C=C/c1ccc(Cl)c(Cl)c1)NCCCCCN1CCCN(C(=O)Nc2cccc(Cl)c2)CC1 showed an IC50 of 1.3 µM.
With O=C(/C=C/c1ccc(Cl)c(Cl)c1)NCCCN1CCN(C(=O)Nc2ccc(Cl)c(Cl)c2)CC1 the IC50 was 0.32 µM.
For O=C(/C=C/c1ccccc1)NCCCCN1CCCN(C(=O)Nc2ccc(Cl)c(Cl)c2)CC1, the IC50 was 0.17 µM.
Compound O=C(/C=C/c1ccc(Cl)c(Cl)c1)NCCCCCN1CCC(C(=O)Nc2ccc(Cl)c(Cl)c2)CC1 has an IC50 of 0.63 µM.
For O=C(/C=C/c1ccc(Cl)c(Cl)c1)NCCCCCN1CCCN(C(=O)Nc2ccc(F)c(Cl)c2)CC1, the IC50 was 0.72 µM.
For O=C(/C=C/c1ccc(Cl)c(Cl)c1)NCCCCCN1CCN(C(=O)Nc2ccc(F)c(Cl)c2)CC1, the IC50 was 0.98 µM.
For O=C(/C=C/c1ccc(Cl)c(Cl)c1)NCCCCCN1CCN(C(=O)Nc2cccc(Cl)c2)CC1, the IC50 was 51 µM.
Compound Cc1ccc(NC(=O)N2CCCN(CCCCCNC(=O)/C=C/c3ccc(Cl)c(Cl)c3)CC2)cc1 has an IC50 of 100 µM.
Work on O=C(/C=C/c1ccc(Cl)c(Cl)c1)NCCN1CCCN(C(=O)Nc2ccc(Cl)c(Cl)c2)CC1 yielded an IC50 of 100 µM.
With O=C(/C=C/c1ccc(Cl)c(Cl)c1)NCCCCCN1CCCN(C(=O)Nc2ccc(Cl)cc2)CC1 the IC50 was 51 µM.
Compound O=C(/C=C/c1ccc(Cl)c(Cl)c1)NCCCCCN1CCCN(C(=O)Nc2ccc(Cl)c(C(F)(F)F)c2)CC1 has an IC50 of 1.6 µM.
In the case of O=C(/C=C/c1ccc(Cl)c(Cl)c1)NCCCCCN1CCN(C(=O)Nc2ccc(Cl)cc2)CC1, the IC50 is reported as 100 µM.
O=C(/C=C/c1ccc(Cl)c(Cl)c1)NCCCCCN1CCN(C(=O)Nc2ccc(Cl)c(Cl)c2)CC1 gave an IC50 of 0.94 µM.
COc1cccc(NC(=O)N2CCCN(CCCCCNC(=O)/C=C/c3ccc(Cl)c(Cl)c3)CC2)c1 gave an IC50 of 10 µM.
Work on O=C(/C=C/c1ccc(Cl)c(Cl)c1)NCCCCCN1CCN(C(=O)Nc2ccc3c(c2)OCO3)CC1 yielded an IC50 of 70 µM.
In the case of O=C(/C=C/c1ccc(Cl)c(Cl)c1)NCCCCCN1CCCN(C(=O)Nc2ccc(Cl)c(Cl)c2)CC1, the IC50 is reported as 0.47 µM.
